Laboratory results: patent US20250152720A1, “NEW CARBOHYDRATE DERIVATIVES AS MIMETICS OF BLOOD GROUP A AND B ANTIGENS” (REMAB THERAPEUTICS SL, priority 2022, published 2025)

How the values were obtained:
[1] = system: purified anti-B antibodies binding to red blood cells (Group B); test: Flow Cytometry inhibition of binding of purified anti-B antibodies to red blood cells (Group B) (Example 6.4); format: cell-based, human; settings: anti-B 1 μg/mL
Method: The capacity to inhibit the binding of purified anti-B antibodies to red blood cells (Group B), measured by Flow Cytometry was tested. The Flow Cytometry assay was performed as follows: […] Afterwards, primary antibodies with the corresponding inhibitor were added. […] The samples were then incubated for 30 minutes at 37° C. (in the dark, mild horizontal shaking 30-40 rpm). Afterwards the samples were washed twice with PBS (centrifuged at 300 g. 3 minutes), and the supernatants were removed by aspiration. Then, 50 μL of the corresponding fluorochrome secondary anti-Ig antibody (7.5 μg/mL of goat anti-human IgG Alexa Fluor 647. Jackson Immunoresearch, West Grove, PA, USA, and 20 μg/mL of goat anti-human IgM C[…], Sigma-Aldrich, St. Louis, MO, USA) diluted in PBS were added to the RBC and incubated for 35 minutes at 37° C. (in the dark). The samples were washed twice with PBS (centrifuged at 300 g, 3 minutes), and the supernatants were removed by aspiration. Finally, the cells were resuspended in filtered PBS. Cells incubated with only PBS were used as a negative control for the experiment. Cells incubated only with secondary antibodies were considered background signals. Flow Cytometry analysis was performed on a Beckman Coulter Gallios Flow Cytometry analyzer using the blue (488 nm-22 mW) and red (635 nm-25 mW) solid-state laser as exciting source. Every single FACS determination recorded about 20,000 total events. Data was analyzed with KALUZA software (Beckman Coulter, CA, USA). The inhibitory capacity was expressed as a percentage of removal referred to the baseline condition (in ordinates).

[2] = system: purified human anti-B antibodies (IgG, IgM); settings: IgG 0,095 ug/mL and IgM 0.045 ug/mL; increasing glycoconjugate concentrations (0-400 μg/mL); versus Comparative-1; FIG. 11
Method: (§1) ELISA: Maxisorp 96-well flat-bottom plates (Thermo Scientific, Waltham, MA, US) were coated for 18 hours at 4° C. with 50 μL/well of 10 μg/mL of the following PAA-glycoconjugates (as disclosed above in Table 3): 1 (B natural type2) and 5 (A natural type2); in coating buffer (0.05 M carbonate-bicarbonate, pH 9.6). Wells coated only with 50 μL/well of 10 μg/mL of PAA were considered the background of each sample assessed. After coating, the plates were washed three times with 200 μL/well of 0.1% (v/v) PBST using an autowasher and blocked for 1 hour at 4° C. with 100 μL/well of 0.1% (v/v) PBST+1% (w/v) BSA. Washing steps were repeated.
The inhibition samples were prepared in separate tubes using a fixed concentration of anti-A or anti-B antibodies, and an increasing concentration of the following polylysine glycoconjugate inhibitors, prepared in Example 4 (0-400 μg/mL): • Comparative-1 (comprising natural B type-II antigen) • Example 4.1 (comprising analogue of Example 1.1) • Comparative-2 (comprising natural A type-II antigen) • Example 4.8 (comprising analogue of Example 1.8) […]
(§2) After washing steps, plates were incubated for 0.5 hours at 25° C. […] The reaction was stopped with 50 μL/well of 3N HCl, and the resulting absorbance was registered at 490 nm using a microplate reader.
The percentage of removal (%) was calculated referred to the baseline condition (without inhibitor compound). […]

[3] = system: purified human anti-A antibodies (IgG, IgM); settings: IgG 0.075 ug/mL and IgM 0.185 ug/mL; glycoconjugate at 10, 100 and 400 μg/mL; versus Comparative-2; FIG. 10
Method: as §1
The tubes were incubated for 18 hours at 4° C. and then a convenient dilution of inhibition mix to the ELISA plate (50 μL/vell) was added and incubated for 0.5 hours at 25° C. in a rocker.
as §2
To quantify the antibody levels. […]
The percentage of removal (%) was calculated referred to the baseline condition (without inhibitor compound).

Question: For “Polyfysine DP1000 conjugate with tetrasaccharide Glcα1-3(Fucα1-2)Galβ1-4GlcNAcβ (Example 1.1) (25%) [Example 4.1]”, which “percentage of removal referred to the baseline condition, IgG” value ([1]; inhibitor 2.5 ug/mL) is on record?
Answer: 5.64%

Question: And the “percentage of removal referred to the baseline condition, IgM” value ([1]; inhibitor 2.5 ug/mL)?
Answer: 6.35%

Question: What about the “capacity to inhibit human purified anti-B antibodies (percentage of removal)” value [2] of the same substance?
Answer: lower capacity to inhibit human purified anti-B antibodies than the natural comparator

Question: How did the “percentage of removal referred to the baseline condition, IgG” value ([1]; inhibitor 0.25 ug/mL) turn out when “Polylysine DP1000 Conjugate with Galα1-3(Fucα1-2)Galβ1-4GlcNAcβB (Type2) Tetrasaccharide [Comparative-1, reference compound]” was run?
Answer: 15.12%

Question: And the “percentage of removal referred to the baseline condition, IgM” value ([1]; inhibitor 0.25 ug/mL)?
Answer: 26.4%

Question: With “Polylysine DP1000 Conjugate with Trisaccharide GlcNAcα1-3(Fucα1-2)Galβ (Example 1.8) (25%) [Example 4-8]” as the substance, how does the “capacity to inhibit human purified anti-A antibodies (percentage of removal)” value [3] read?
Answer: higher capacity to inhibit human purified anti-A antibodies than the comparator
